{
  "source": "BigSolDB 2.1",
  "data": [
    {"smiles": "CC(=O)O[C@H]1NC(=O)[C@@H]1[C@@H](C)O[Si](C)(C)C(C)(C)C", "values": [
      {"measurement": "solubility (mole fraction)", "setting": "in THF, 293.15 K", "result": 0.238},
      {"measurement": "solubility (mole fraction)", "setting": "in THF, 298.15 K", "result": 0.242},
      {"measurement": "solubility (mole fraction)", "setting": "in THF, 303.15 K", "result": 0.251},
      {"measurement": "solubility (mole fraction)", "setting": "in THF, 308.15 K", "result": 0.264},
      {"measurement": "solubility (mole fraction)", "setting": "in THF, 313.15 K", "result": 0.278},
      {"measurement": "solubility (mole fraction)", "setting": "in THF, 318.15 K", "result": 0.3},
      {"measurement": "solubility (mole fraction)", "setting": "in THF, 323.15 K", "result": 0.323},
      {"measurement": "solubility (mole fraction)", "setting": "in THF, 328.15 K", "result": 0.342},
      {"measurement": "solubility (mole fraction)", "setting": "in THF, 333.15 K", "result": 0.368},
      {"measurement": "solubility (mole fraction)", "setting": "in acetone, 293.15 K", "result": 0.147},
      {"measurement": "solubility (mole fraction)", "setting": "in acetone, 298.15 K", "result": 0.166},
      {"measurement": "solubility (mole fraction)", "setting": "in acetone, 303.15 K", "result": 0.186},
      {"measurement": "solubility (mole fraction)", "setting": "in acetone, 308.15 K", "result": 0.203},
      {"measurement": "solubility (mole fraction)", "setting": "in acetone, 313.15 K", "result": 0.218},
      {"measurement": "solubility (mole fraction)", "setting": "in acetone, 318.15 K", "result": 0.233},
      {"measurement": "solubility (mole fraction)", "setting": "in acetone, 323.15 K", "result": 0.244},
      {"measurement": "solubility (mole fraction)", "setting": "in acetone, 328.15 K", "result": 0.254},
      {"measurement": "solubility (mole fraction)", "setting": "in acetone, 333.15 K", "result": 0.259},
      {"measurement": "solubility (mole fraction)", "setting": "in acetonitrile, 293.15 K", "result": 0.0493},
      {"measurement": "solubility (mole fraction)", "setting": "in acetonitrile, 298.15 K", "result": 0.0629},
      {"measurement": "solubility (mole fraction)", "setting": "in acetonitrile, 303.15 K", "result": 0.0792},
      {"measurement": "solubility (mole fraction)", "setting": "in acetonitrile, 308.15 K", "result": 0.0963},
      {"measurement": "solubility (mole fraction)", "setting": "in acetonitrile, 313.15 K", "result": 0.114},
      {"measurement": "solubility (mole fraction)", "setting": "in acetonitrile, 318.15 K", "result": 0.132},
      {"measurement": "solubility (mole fraction)", "setting": "in acetonitrile, 323.15 K", "result": 0.15},
      {"measurement": "solubility (mole fraction)", "setting": "in acetonitrile, 328.15 K", "result": 0.166},
      {"measurement": "solubility (mole fraction)", "setting": "in acetonitrile, 333.15 K", "result": 0.184},
      {"measurement": "solubility (mole fraction)", "setting": "in chloroform, 293.15 K", "result": 0.258},
      {"measurement": "solubility (mole fraction)", "setting": "in chloroform, 298.15 K", "result": 0.266},
      {"measurement": "solubility (mole fraction)", "setting": "in chloroform, 303.15 K", "result": 0.276},
      {"measurement": "solubility (mole fraction)", "setting": "in chloroform, 308.15 K", "result": 0.291},
      {"measurement": "solubility (mole fraction)", "setting": "in chloroform, 313.15 K", "result": 0.308},
      {"measurement": "solubility (mole fraction)", "setting": "in chloroform, 318.15 K", "result": 0.325},
      {"measurement": "solubility (mole fraction)", "setting": "in chloroform, 323.15 K", "result": 0.347},
      {"measurement": "solubility (mole fraction)", "setting": "in chloroform, 328.15 K", "result": 0.371},
      {"measurement": "solubility (mole fraction)", "setting": "in chloroform, 333.15 K", "result": 0.403},
      {"measurement": "solubility (mole fraction)", "setting": "in cyclohexane, 293.15 K", "result": 0.0028},
      {"measurement": "solubility (mole fraction)", "setting": "in cyclohexane, 298.15 K", "result": 0.00408},
      {"measurement": "solubility (mole fraction)", "setting": "in cyclohexane, 303.15 K", "result": 0.00582},
      {"measurement": "solubility (mole fraction)", "setting": "in cyclohexane, 308.15 K", "result": 0.00838},
      {"measurement": "solubility (mole fraction)", "setting": "in cyclohexane, 313.15 K", "result": 0.0116},
      {"measurement": "solubility (mole fraction)", "setting": "in cyclohexane, 318.15 K", "result": 0.0163},
      {"measurement": "solubility (mole fraction)", "setting": "in cyclohexane, 323.15 K", "result": 0.0223},
      {"measurement": "solubility (mole fraction)", "setting": "in cyclohexane, 328.15 K", "result": 0.0306},
      {"measurement": "solubility (mole fraction)", "setting": "in cyclohexane, 333.15 K", "result": 0.0413},
      {"measurement": "solubility (mole fraction)", "setting": "in ethanol, 293.15 K", "result": 0.0492},
      {"measurement": "solubility (mole fraction)", "setting": "in ethanol, 298.15 K", "result": 0.0601},
      {"measurement": "solubility (mole fraction)", "setting": "in ethanol, 303.15 K", "result": 0.072},
      {"measurement": "solubility (mole fraction)", "setting": "in ethanol, 308.15 K", "result": 0.0859},
      {"measurement": "solubility (mole fraction)", "setting": "in ethanol, 313.15 K", "result": 0.104},
      {"measurement": "solubility (mole fraction)", "setting": "in ethanol, 318.15 K", "result": 0.121},
      {"measurement": "solubility (mole fraction)", "setting": "in ethanol, 323.15 K", "result": 0.145},
      {"measurement": "solubility (mole fraction)", "setting": "in ethanol, 328.15 K", "result": 0.17},
      {"measurement": "solubility (mole fraction)", "setting": "in ethanol, 333.15 K", "result": 0.2},
      {"measurement": "solubility (mole fraction)", "setting": "in ethyl acetate, 293.15 K", "result": 0.159},
      {"measurement": "solubility (mole fraction)", "setting": "in ethyl acetate, 298.15 K", "result": 0.179},
      {"measurement": "solubility (mole fraction)", "setting": "in ethyl acetate, 303.15 K", "result": 0.198},
      {"measurement": "solubility (mole fraction)", "setting": "in ethyl acetate, 308.15 K", "result": 0.216},
      {"measurement": "solubility (mole fraction)", "setting": "in ethyl acetate, 313.15 K", "result": 0.24},
      {"measurement": "solubility (mole fraction)", "setting": "in ethyl acetate, 318.15 K", "result": 0.264},
      {"measurement": "solubility (mole fraction)", "setting": "in ethyl acetate, 323.15 K", "result": 0.294},
      {"measurement": "solubility (mole fraction)", "setting": "in ethyl acetate, 328.15 K", "result": 0.326},
      {"measurement": "solubility (mole fraction)", "setting": "in ethyl acetate, 333.15 K", "result": 0.356},
      {"measurement": "solubility (mole fraction)", "setting": "in methanol, 293.15 K", "result": 0.0593},
      {"measurement": "solubility (mole fraction)", "setting": "in methanol, 298.15 K", "result": 0.069},
      {"measurement": "solubility (mole fraction)", "setting": "in methanol, 303.15 K", "result": 0.0809},
      {"measurement": "solubility (mole fraction)", "setting": "in methanol, 308.15 K", "result": 0.0959},
      {"measurement": "solubility (mole fraction)", "setting": "in methanol, 313.15 K", "result": 0.113},
      {"measurement": "solubility (mole fraction)", "setting": "in methanol, 318.15 K", "result": 0.134},
      {"measurement": "solubility (mole fraction)", "setting": "in methanol, 323.15 K", "result": 0.161},
      {"measurement": "solubility (mole fraction)", "setting": "in methanol, 328.15 K", "result": 0.193},
      {"measurement": "solubility (mole fraction)", "setting": "in methanol, 333.15 K", "result": 0.233},
      {"measurement": "solubility (mole fraction)", "setting": "in n-butyl acetate, 293.15 K", "result": 0.13},
      {"measurement": "solubility (mole fraction)", "setting": "in n-butyl acetate, 298.15 K", "result": 0.145},
      {"measurement": "solubility (mole fraction)", "setting": "in n-butyl acetate, 303.15 K", "result": 0.163},
      {"measurement": "solubility (mole fraction)", "setting": "in n-butyl acetate, 308.15 K", "result": 0.18},
      {"measurement": "solubility (mole fraction)", "setting": "in n-butyl acetate, 313.15 K", "result": 0.199},
      {"measurement": "solubility (mole fraction)", "setting": "in n-butyl acetate, 318.15 K", "result": 0.221},
      {"measurement": "solubility (mole fraction)", "setting": "in n-butyl acetate, 323.15 K", "result": 0.251},
      {"measurement": "solubility (mole fraction)", "setting": "in n-butyl acetate, 328.15 K", "result": 0.288},
      {"measurement": "solubility (mole fraction)", "setting": "in n-butyl acetate, 333.15 K", "result": 0.326},
      {"measurement": "solubility (mole fraction)", "setting": "in n-hexane, 293.15 K", "result": 0.00287},
      {"measurement": "solubility (mole fraction)", "setting": "in n-hexane, 298.15 K", "result": 0.00411},
      {"measurement": "solubility (mole fraction)", "setting": "in n-hexane, 303.15 K", "result": 0.00577},
      {"measurement": "solubility (mole fraction)", "setting": "in n-hexane, 308.15 K", "result": 0.00813},
      {"measurement": "solubility (mole fraction)", "setting": "in n-hexane, 313.15 K", "result": 0.0116},
      {"measurement": "solubility (mole fraction)", "setting": "in n-hexane, 318.15 K", "result": 0.0161},
      {"measurement": "solubility (mole fraction)", "setting": "in n-hexane, 323.15 K", "result": 0.022},
      {"measurement": "solubility (mole fraction)", "setting": "in n-hexane, 328.15 K", "result": 0.0305},
      {"measurement": "solubility (mole fraction)", "setting": "in n-hexane, 333.15 K", "result": 0.0422},
      {"measurement": "solubility (mole fraction)", "setting": "in toluene, 293.15 K", "result": 0.0796},
      {"measurement": "solubility (mole fraction)", "setting": "in toluene, 298.15 K", "result": 0.096},
      {"measurement": "solubility (mole fraction)", "setting": "in toluene, 303.15 K", "result": 0.116},
      {"measurement": "solubility (mole fraction)", "setting": "in toluene, 308.15 K", "result": 0.141},
      {"measurement": "solubility (mole fraction)", "setting": "in toluene, 313.15 K", "result": 0.163},
      {"measurement": "solubility (mole fraction)", "setting": "in toluene, 318.15 K", "result": 0.186},
      {"measurement": "solubility (mole fraction)", "setting": "in toluene, 323.15 K", "result": 0.209},
      {"measurement": "solubility (mole fraction)", "setting": "in toluene, 328.15 K", "result": 0.238},
      {"measurement": "solubility (mole fraction)", "setting": "in toluene, 333.15 K", "result": 0.265}
    ]}
  ]
}
